The text below walks through data of patent US20160318928A1, “TRICYCLIC COMPOUNDS AS ANTICANCER AGENTS” (BRISTOL-MYERS SQUIBB COMPANY, priority 2013, published 2016).

One may read the IC50 as the concentration that gives 50% inhibition. A high value points to weaker potency in that assay.

One test deals with BRD4 (Homo sapiens, UniProt O60885). Nature of the test: Time resolved fluorescence resonance energy transfer (TR-FRET) binding assay, BRD4 bromodomain. As to conditions: one of the FRET assays described. Background: In TR-FRET formats the signal depends on donor and acceptor labels being close together.
Test [1] has as its system JJN3R multiple myeloma cell line. Nature of the test: Human tumor xenograft model in mice, JJN3R. Format: in vivo. The following applies: Mus musculus, JJN-3R, po, QDx7, read-out: % TGI. An excerpt:
Human Tumor Xenograft Models in Mice
All rodents were obtained from Jackson Laboratory. (Bar Harbor, Me.), and maintained in an ammonia-free environment in a defined and pathogen-free colony. All mice were quarantined approximately 1 week prior to their use for tumor propagation and drug efficacy testing. Mice were fed food and water ad libitum. The animal care program of Bristol-Myers Squibb Pharmaceutical Research Institute is fully accredited by the American Association for Accreditation of Laboratory Animal Care (AAALAC). All experiments were performed in accordance with Bristol-Myers Squibb (BMS) animal test methods and guidelines.
Tumor xenografts were grown and maintained subcutaneously (SC) in NSG (NOD scid IL2 receptor gamma chain knockout) mice (Jackson Lab). Tumors were propagated as subcutaneous transplants using tumor fragments obtained from donor mice.
Preclinical Chemotherapy Trials
The required numbers of animals needed to detect a meaningful response were pooled at the start of the experiment and each was given bilateral subcutaneous implants of two tumor fragments (˜20 mg) with a 13-gauge trocar. Tumors were allowed to grow to the pre-determined size window (tumors outside the range were excluded) and animals were evenly distributed to various treatment and control groups. There were typically 6-8 mice per treatment and control groups, consisting of 10-12 tumors. Treatment of each animal was based on individual body weight. Treated animals were checked daily for treatment related toxicity/mortality. Each group of animals was weighed before the initiation of treatment (WO and then again following the last treatment dose (Wt2). The difference in body weight (Wt2-Wt1) provides a measure of treatment-related toxicity.
Tumor response was determined by measurement of tumors with a caliper twice a week, until the tumors reached a predetermined “target” size of 0.5 gm or 1 gm depending on the tumor type. Tumor weights (mg) were estimated from the formula:
Tumor weight=(length×width^2)÷2
Tumor response criteria are expressed in terms of tumor growth inhibition (% TGI). Tumor growth delay is defined as the difference in time (days) required for the treated tumors (T) to reach a predetermined target size compared to those of the control group (C). For this purpose, the tumor weight of a group is expressed as medium tumor weight (MTW).
Tumor growth inhibition is calculated as follows:
where, Ct=Median control tumor size at end of treatment C0=Median control tumor size at treatment initiation Tt=Median tumor size of treated group at end of treatment T0=Median tumor size of treated group at treatment initiation
Tumor response was also expressed in terms of tumor growth delay and expressed as log cell kill (LCK value), defined as the difference in time (days) required for the treated tumors (T) to reach a predetermined target size compared to those of the control group (C).
Whenever possible, antitumor activity was determined at a range of dose levels up to the maximum tolerated dose (MTD) which is defined as the dose level immediately […] which excessive toxicity (i.e. more than one death) occurred. When death occurred, the day of death was recorded. Treated mice dying prior to having their tumors reach target size were considered to have died from drug toxicity. No control mice died bearing tumors less than target size. Treatment groups with more than one death caused by drug toxicity were considered to have had excessively toxic treatments and their data were not included in the evaluation of a compound's antitumor efficacy.
For administration of BET inhibitors to rodents, compounds were dissolved in […]/10% TPGS/10% Ethanol. BET inhibitors were typically administered orally on a schedule of QDx7 or QDx10 (5 day-on-2 day-off), although other schedules had also been evaluated and shown to be efficacious

On BRD4, `Cc1nnn(C)c1-c1cnc2c3ccc(S(C)(=N)=O)cc3n([C@H](c3ccccc3)C3CCOCC3)c2c1` (single isomer, unassigned) [Example 371] returned an IC50 of less than 5 nM.

In the case of `Cc1nnn(C)c1-c1cnc2c3ccc(S(C)(=N)=O)cc3n([C@H](c3ccccc3)C3CCOCC3)c2c1` (single isomer, unassigned) [Example 372], the IC50 at BRD4 is less than 5 nM.

For the compound `COCC(C1CCOCC1)n1c2cc(C(C)(C)O)ccc2c2ncc(-c3c(C)nnn3C)cc21` (single isomer, unassigned) [Example 396], the half-maximal inhibitory concentration (IC50) at BRD4 was less than 5 nM.

On to `COCC(C1CCOCC1)n1c2cc(C(C)(C)O)ccc2c2ncc(-c3c(C)nnn3C)cc21` (single isomer, unassigned) [Example 397], for which the IC50 at BRD4 was less than 25 nM.

`Cc1nnn(C)c1-c1cnc2c3ccc([C@](C)(O)C4CC4)c(F)c3n([C@H](c3ccccc3)C3CCOCC3)c2c1` (single isomer, unassigned) [Example 432]: in test [1], the inhibition in vivo at 1 mg/kg came out at 51% and the inhibition in vivo at 4 mg/kg came out at 102%.

Turning to `Cc1nnn(C)c1-c1cnc2c3ccc(C(C)(O)C4CC4)c(F)c3n([C@H](c3ccccc3F)C3CCOCC3)c2c1` (single isomer, unassigned) [Example 436], in test [1], the inhibition in vivo at 1 mg/kg was found to be 71% and the inhibition in vivo at 4 mg/kg was 116%.

`[2H]C([2H])([2H])c1nnn(C)c1-c1cnc2c3cc(F)c(C(C)(C)O)cc3n(C(c3ncccc3F)C3CCOCC3)c2c1` (single isomer, unassigned) [Example 459]: the IC50 on BRD4 was less than 5 nM.

For the compound `Cc1noc(C)c1-c1cnc2c3ccc(C(C)(C)O)cc3n(C(c3ccccc3)c3ccccc3)c2c1` [Example 3], at BRD4, the IC50 was less than 5 nM.

`CCCC(CCC)n1c2cc(C(C)(C)O)ccc2c2ncc(-c3c(C)noc3C)cc21` [Example 8]: the IC50 at BRD4 was less than 5 nM.

As to `Cc1nnn(C)c1-c1cnc2c3ccc(C(C)(C)O)cc3n(C(CCC(F)(F)F)CCC(F)(F)F)c2c1` [Example 56], the IC50 at BRD4 was less than 5 nM.

In the case of `Cc1nnn(C)c1-c1cnc2c3ccc(C(C)(C)O)cc3n([C@H](c3ccc(F)cc3)C3CCOCC3)c2c1` [Example 59], at BRD4, the IC50 was less than 5 nM.

At BRD4, `Cc1nnn(C)c1-c1cnc2c3ccc(C(C)(C)O)cc3n([C@@H](c3ccc(F)cc3)C3CCOCC3)c2c1` [Example 60] came in with an IC50 of less than 5 nM.

On to `CCCC(CCC)n1c2cc(C(C)(C)O)ccc2c2ncc(-c3c(C)nnn3C)cc21` [Example 61], for which, on BRD4, the IC50 is less than 5 nM.

In the case of `Cc1nnn(C)c1-c1cnc2c3ccc(C(C)(C)O)cc3n([C@@H](c3ccc(F)cc3)C3CCOCC3)c2c1` [Example 73], at BRD4, the IC50 is less than 5 nM.

Turning to `Cc1nnn(C)c1-c1cnc2c3ccc(C(C)(C)O)c(F)c3n(C(CCC(F)(F)F)CCC(F)(F)F)c2c1` [Example 74], on BRD4, the IC50 was less than 25 nM.

`CCCC(CCC)n1c2cc(-c3c(C)nnn3C)cnc2c2ccc(C(C)(C)O)c(F)c21` [Example 75] registered an IC50 at BRD4 of less than 5 nM.

`CCCC(CCC)n1c2cc(-c3c(C)noc3C)cnc2c2ccc(C(C)(C)O)c(F)c21` [Example 82] displayed a 50% inhibitory concentration (IC50) at BRD4 of less than 25 nM.

As to `Cc1noc(C)c1-c1cnc2c3ccc(C(C)(C)O)c(F)c3n(C(CCC(F)(F)F)CCC(F)(F)F)c2c1` [Example 83], at BRD4, the IC50 was less than 25 nM.

`CCS(=O)(=O)Nc1ccc(S(C)(=O)=O)c2c1c1ncc(-c3c(C)nnn3C)cc1n2[C@H](c1ccccc1)C1CCOCC1` [Example 217] showed a half-inhibitory concentration (IC50) on BRD4 of less than 5 nM.

As to `Cc1nnn(C)c1-c1cnc2c3c(NS(=O)(=O)C4CC4)ccc(S(C)(=O)=O)c3n(C(c3ccccc3)C3CCOCC3)c2c1` (stereo not drawn) [Example 218], the IC50 on BRD4 was less than 5 nM.

`Cc1nnn(C)c1-c1cnc2c3c(NS(=O)(=O)CC4CC4)ccc(S(C)(=O)=O)c3n([C@H](c3ccccc3)C3CCOCC3)c2c1` [Example 219] came in with an IC50 on BRD4 of less than 5 nM.

Take `[2H]C([2H])([2H])c1nnn(C)c1-c1cnc2c3c(NS(=O)(=O)CC)ccc(S(C)(=O)=O)c3n(C(c3ccccc3)C3CCOCC3)c2c1` (stereo not drawn) [Example 223]: at BRD4, the IC50 is less than 25 nM.

For the compound `[2H]C([2H])([2H])c1nnn(C)c1-c1cnc2c3ccc(S(C)(=O)=O)cc3n([C@H](c3ccccc3)C3CCOCC3)c2c1` [Example 263, 5-{7-Methanesulfonyl-5-[(S)-oxan-4-yl(phenyl)methyl]-5H-pyrido[3,2-b]indol-3-yl}-4-(^2H3)methyl-1-methyl-1H-1,2,3-triazole], in test [1], the inhibition in vivo at 1 mg/kg was 6% and the inhibition in vivo at 4 mg/kg was determined as 52%.

`[2H]C([2H])([2H])c1nnn(C)c1-c1cnc2c3ccc(S(C)(=O)=O)cc3n(C(c3ccc(F)cc3)C3CCOCC3)c2c1` (stereo not drawn) [Example 265] registered a half-maximal inhibitory concentration (IC50) on BRD4 of less than 5 nM.

At BRD4, `[2H]C([2H])([2H])c1nnn(C)c1-c1cnc2c3ccc(C(C)(C)O)cc3n(C(c3ccccc3F)C3CCOCC3)c2c1` (stereo not drawn) [Example 266] returned a concentration for half-maximal inhibition (IC50) of less than 5 nM.

On to `[2H]C([2H])([2H])c1nnn(C)c1-c1cnc2c3c(S(C)(=O)=O)cccc3n(C(c3ccc(F)cc3)C3CCOCC3)c2c1` (stereo not drawn) [Example 270], for which the IC50 at BRD4 was less than 5 nM.

For the compound `[2H]C([2H])([2H])c1nnn(C)c1-c1cnc2c3ccc(C(C)(C)O)c(F)c3n([C@H](c3ccccc3F)C3CCCOC3)c2c1` (stereo partly drawn) [Example 272], the IC50 at BRD4 was less than 5 nM.

In the case of `[2H]C([2H])([2H])c1nnn(C)c1-c1cnc2c3c(OC)cc(C(C)(C)O)cc3n(C(c3ccc(F)cc3)C3CCOCC3)c2c1` (stereo not drawn) [Example 275], on BRD4, the IC50 is less than 5 nM.

With `[2H]C([2H])([2H])c1nnn(C)c1-c1cnc2c3cc(F)c(C(C)(C)O)cc3n([C@H](c3ccccc3F)C3CCOCC3)c2c1` [Example 276, 2-{8-Fluoro-5-[(S)-(2-fluorophenyl)(oxan-4-yl)methyl]-3-[4-(^2H3)methyl-1-methyl-1H-1,2,3-triazol-5-yl]-5H-pyrido[3,2-b]indol-7-yl}propan-2-ol], in test [1], the inhibition in vivo at 1 mg/kg turned out to be 56% and the inhibition in vivo at 4 mg/kg came out at 95%.

Take `COc1cccnc1C(C1CCOCC1)n1c2cc(C(C)(C)O)ccc2c2ncc(-c3c(C)nnn3C)cc21` (stereo not drawn) [Example 291]: the IC50 on BRD4 was less than 5 nM.

In turn, `Cc1nnn(C)c1-c1cnc2c3ccc(CN(C)C)cc3n([C@H](c3ccccc3)C3CCOCC3)c2c1` [Example 406, {[3-(Dimethyl-1H-1,2,3-triazol-5-yl)-5-[(S)-oxan-4-yl(phenyl)methyl]-5H-pyrido[3,2-b]indol-7-yl]methyl}dimethylamine] showed an IC50 on BRD4 of less than 5 nM.

`Cc1nnn(C)c1-c1cnc2c3cc(C(=O)N4CC(F)(F)C4)ccc3n([C@H](c3ccccc3)C3CCOCC3)c2c1` [Example 428, 5-[8-(3,3-Difluoroazetidine-1-carbonyl)-5-[(S)-oxan-4-yl(phenyl)methyl]-5H-pyrido[3,2-b]indol-3-yl]-1,4-dimethyl-1H-1,2,3-triazole] displayed a half-maximal inhibitory concentration (IC50) on BRD4 of less than 5 nM.

As for `Cc1nnn(C)c1-c1cnc2c3cc(C(=O)N4CC(O)C4)ccc3n([C@H](c3ccccc3)C3CCOCC3)c2c1` [Example 429, 1-[3-(Dimethyl-1H-1,2,3-triazol-5-yl)-5-[(S)-oxan-4-yl(phenyl)methyl]-5H-pyrido[3,2-b]indole-8-cabonyl]azetidine-3-ol], the IC50 on BRD4 was less than 5 nM.

`Cc1nnn(C)c1-c1cnc2c3cc(C(=O)N4CC(F)C4)ccc3n([C@H](c3ccccc3)C3CCOCC3)c2c1` [Example 430, 5-[8-(3-Fluoroazetidine-1-carbonyl)-5-[(S)-oxan-4-yl(phenyl)methyl]-5H-pyrido[3,2-b]indol-3-yl]-1,4-dimethyl-1H-1,2,3-triazole] yielded an IC50 on BRD4 of less than 5 nM.

In the case of `Cc1nnn(C)c1-c1cnc2c3cc(F)c(C(C)(C)O)c(F)c3n([C@H](c3ccccc3)C3CCOCC3)c2c1` [Example 451, 2-[3-(Dimethyl-1H-1,2,3-triazol-5-yl)-6,8-difluoro-5-[(S)-oxan-4-yl(phenyl)methyl]-5H-pyrido[3,2-b]indol-7-yl]propan-2-ol], the 50% inhibitory concentration (IC50) on BRD4 is less than 5 nM.
